Data from patent publication US6716596B2, “Agents for replacement of NAD+/NADH system in enzymatic reactions” (The Regents of the University of California, priority 2001, dated 2004).
Where a name gives a salt, the structure may show the parent alone.

Legend:
[1] = stability observations (light, air, solvent); format: physicochemical
[2] = biological target: T1, horse liver alcohol dehydrogenase (HLADH) (Equus caballus, UniProt P00327); assay: HLADH enzymatic chiral reduction of ketones with biomimic co-factor regeneration; format: biochemical
T1 construct: purchased Sigma
Procedure: FIG. 7 presents structures of ketone substrates 12-15 used for biomimic chiral synthesis of corresponding alcohols. Conversion of the substrates 12-15 to their corresponding alcohols are expressed in % yield, and TOF in d^−1 and S-enantiomer excess (ee) are also shown for each conversion. Corresponding values obtained with NAD^+ are given in parenthesis. The S-enantiomeric excess (ee) was determined by GLC with a modified β-cyclodextrin capillary column.
[Cp*Rh(bpy)(H2O)]OTf2 (1.9 mg, 2.61×10^−3 mmol), sodium formate (17.8 mg, 261.69×10^−3 mmol), NAD^+ (8.1 mg, 11.23×10^−3 mmol) and HLADH (10 units) were placed in a 10 mL Schlenk flask, and Schlenk techniques were followed to deoxygenate the solid mixture.
Under positive argon pressure, 5 mL of potassium phosphate buffer (100 mM, pH=7.02, deoxygenated) and carbonyl substrate (83.58×10^−3 mmol, deoxygenated) were added via syringe. The reaction flask was immediately securely capped with a glass-stopper and shaken with a shaker in 30° C. water-bath. The reaction was monitored by gas chromatography (GC), equipped with a β-cyclodextrin column (Supelco, β-DEX-225), and the products were identified by comparing the retention time with the corresponding authentic chiral samples and were confirmed by GC-MS. The enantiomeric excess of the products was determined directly by their relative area in the chromatogram. The progress of the reaction was obtained by mixing the reaction aliquot with an internal standard (cyclohexanol in phosphate buffer), and then calibrating the measured relative area in the chromatogram with their corresponding response factors. The reaction was monitored for 24 hours.
The same procedure as described in section A was followed, except that NAD^+ was substituted with any one of the biomimic compounds of the invention.

[3] = regioselective reduction of biomimics with catalyst precursor (2) and sodium formate, followed by 1H NMR; conditions: disappearance of pyridinium signals vs [(CH3)4N]OTf during first 2 hours; compound (1a) set to 1.0
Procedure: The relative rates, seen tabulated in FIG. 1C, were determined by observing disappearance of the pyridinium signals versus an internal standard, [(CH3)4N]OTf (tetramethylammonium triflate), during the first 2 hours, where the relative rate of 1-benzylnicotinamide triflate (1) was set to 1.0. The turnover frequencies were calculated by the formation of mmol of product/mmol of catalyst/hour. The total turnover number in 24 hours was ˜95 for all substrates that gave product. The reactions were conducted in presilylated J. Young NMR tubes and were followed by ^1H NMR.
The electronic effect of differently substituted nicotinamide substrates was determined by their relative rates. The relative rates of these compounds were determined by observing the disappearance of the pyridinium signals compared to interval standard, [(CH3)4N]OTf, during the first 2 hours, where the relative rate of compound (1a) was 1.0.
In a typical reaction, a J. Young NMR tube was charged, biomimic substrates (1a)-(1i) (1.0 mol), 2 (1% mol), and HCO2Na (1.1 mol) used as the hydride source and a Schlenk techniques were conducted to deoxygenate the solid mixture. A diluted solvent was added to these solids for compounds (1a)-(1i), the solvent was D2O-THF-d8 (1=1 0.75 mL, deoxygenated), and the NMR tube was placed in a liquid nitrogen bath. The contents were further degassed by two successive freeze-pump-thaw cycles. After thawing out the reaction mixture, the J. Young NMR tube was immediately put in a salted ice-bath and covered with aluminum foil. The reaction was then followed by ^1H NMR spectroscopy at 26° C. temperature, after a speedy thawing out.
The given relative rates and turnover frequencies were determined by decreasing integration of the corresponding pyridinium salts measured against an internal standard, (CH3)4N(OTf), during the first 2 h of the reaction. The ratios of the 1,4- and 1,6-dihydronicotinamide derivatives of compounds (1a), (1b) and (1d)-(1g) were obtained by comparison of the resonance signals with those of authentic samples, where the diagnostic signal is the resonance for —CH2Ph moiety which can be identified unambiguously in the ^1H NMR spectrum.

T1 sequence (P00327 2-375 limits assumed): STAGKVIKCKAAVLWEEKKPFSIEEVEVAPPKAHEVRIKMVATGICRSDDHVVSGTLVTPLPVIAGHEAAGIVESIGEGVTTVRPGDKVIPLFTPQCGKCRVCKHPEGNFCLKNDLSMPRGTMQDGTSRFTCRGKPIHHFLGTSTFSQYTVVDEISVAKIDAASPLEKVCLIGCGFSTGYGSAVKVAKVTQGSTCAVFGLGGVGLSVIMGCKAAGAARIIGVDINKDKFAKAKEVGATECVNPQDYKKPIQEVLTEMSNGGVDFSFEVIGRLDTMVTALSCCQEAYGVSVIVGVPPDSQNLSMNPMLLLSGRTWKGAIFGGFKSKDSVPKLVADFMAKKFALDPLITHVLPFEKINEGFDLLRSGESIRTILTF

- stability [1]: more stable in acqueous/organic solvent
- recognition by HLADH as hydride catalyst of the chiral conversion [2]: recognizes
- turnover frequency of chiral ketone reduction ([2]; ketone (12) reduced by HLADH with co-factor regeneration, 24 hours): ~30 day⁻¹
Structure (SMILES): NC(=O)c1ccc[n+](Cc2ccccc2)c1 [Compound 1a, 1-Benzylnicotinamide, Triflate Salt]
- relative rate of regioselective reduction [3]: 1.0
